Results from US20170056423A1 (Gilead Sciences, Inc., priority 2012, published 2017).
Like-named read-outs stand apart in the source and are kept apart here.

How the values were obtained:
[1] = target: uridine glucuronosyltransferase 1A1 (Homo sapiens, UniProt P22309); assay: UGT1A1 inhibition by cobicistat; format: in vitro ADME
CYP2C8 = CYP2C8 (Homo sapiens, UniProt P10632); assay: CYP2C8 inhibition; format: in vitro ADME
BCRP [2] = target: T1, BCRP (Homo sapiens, UniProt Q9UNQ0); assay: BCRP substrate assay, bidirectional permeability in MDCKII-BCRP cells; format: in vitro ADME; conditions: 10 μM, MDCKII-BCRP vs MDCKII-WT, ± Ko134
T1 construct: expressed in transfected cells; host or cells: MDCKII (Madin-Darby canine kidney) cells, MDCKII-ABCG2 / MDCKII-BCRP
Procedure: (§1) Pgp and BCRP substrate assays in transfected MDCKII cells: MDCKII cells were grown to confluence over 4-6 days on 24-well PET transwell plates (BD Biosciences). The same buffers were used in the donor and receiver wells as described above for caco-2 studies. Experiments were conducted as described above for caco-2 transepithelial transport studies and samples analyzed by LC/MS/MS. Similar quality control and acceptance criteria were used as those described above for caco-2 studies. TEER values and the permeability of lucifer yellow, atenolol, and propranolol were determined to meet acceptance criteria for each batch of assay plates. Efflux ratios were determined to be at least 3-fold higher in transfected versus nontransfected monolayers for the model Pgp substrate vinblastine and BCRP substrate prazosin.
(§2) Data analysis: The 50% inhibition constants (IC50) values for transporters in the fluorescent accumulation studies done in MDCKII cells, defined as the test article concentration needed to inhibit the maximal transporter specific transport by 50%, were calculated using nonlinear curve fitting of inhibition versus concentration to a sigmoidal curve with a variable Hill coefficient using GraphPad Prism 5 (GraphPad Software Inc., San Diego, Calif.). […]

CYP2D6 = CYP2D6 (Homo sapiens, UniProt P10635); assay: CYP2D6 inhibition; format: in vitro ADME
CYP1A2 = CYP1A2 (Homo sapiens, UniProt P05177); assay: CYP1A2 inhibition; format: in vitro ADME
caco-2 cell monolayers = assay: bidirectional permeability of HIV protease inhibitors and GS-7340 through caco-2 monolayers; format: in vitro ADME; conditions: COBI 90 μM, GS-7340 10 μM, over 2 hours
BCRP [3] = target: T1, BCRP; assay: BCRP inhibition assay, Hoechst 33342 accumulation in MDCKII-ABCG2 cells; format: cell-based; conditions: Hoechst 33342, MDCKII-ABCG2 cells
Procedure: (§3) Pgp and BCRP inhibition assays in transfected Madin-Darby canine kidney (MDCKII) cells: Inhibition of Pgp-mediated transport was studied using the Pgp substrate calcein AM and MDCKII cells transfected with the human MDR1 (ABCB1) gene (encoding Pgp). Similarly, inhibition of BCRP-mediated transport was studied using the BCRP substrate Hoechst 33342 and MDCKII cells transfected with the human ABCG2 gene (encoding BCRP). Briefly, MDCKII cells were seeded in 96-well black cell culture plates with clear bottoms at a density of 5×10^4 cells/well and grown to confluence overnight. Test compounds were diluted in cell culture medium containing 10 μM Hoechst 33342 and incubated for 3 hours with MDCKII-BCRP and nontransfected cells. Following removal of media containing Hoechst 33342 and test compound, cells were washed twice with warm medium and lysed at room temperature for 5-10 minutes in a buffer containing 20 mM Tris-HCl pH 9.0 and 0.4% Triton X-100. Wells were analyzed for Hoechst 33342 fluorescence at an excitation of 353 nm and an emission of 460 nm. […]

[4] = test system: cytochrome P450, UGT1A1, or P-glycoprotein; assay: xenobiotic receptor transactivation and human hepatocyte induction studies; format: in vitro ADME; conditions: at up to 30 μM
CYP2C9 = CYP2C9 (Homo sapiens, UniProt P11712); assay: CYP2C9 inhibition; format: in vitro ADME
Pgp = target: T2, Pgp (Homo sapiens, UniProt P08183); assay: Pgp inhibition assay, calcein AM accumulation in MDCKII-MDR1 cells; format: cell-based
T2 construct: expressed in transfected cells; host or cells: MDCKII (Madin-Darby canine kidney) cells, MDCKII-MDR1
Procedure: as §3

CYP2C19 = CYP2C19 (Homo sapiens, UniProt P33261); assay: CYP2C19 inhibition; format: in vitro ADME
[5] = target: T3, Pgp (multidrug resistance protein 1; MDR1) (Homo sapiens, UniProt P08183); assay: Pgp substrate assay, bidirectional permeability in MDCKII-MDR1 cells; format: in vitro ADME; conditions: 10 μM, MDCKII-MDR1 vs MDCKII-WT, ± CSA
T3 construct: expressed in transfected cells; host or cells: MDCKII (Madin-Darby canine kidney) cells, MDCKII-MDR1
Procedure: as §1, §2

CYP2B6 = CYP2B6 (Homo sapiens, UniProt P20813); assay: CYP2B6 inhibition; format: in vitro ADME; conditions: similar potency to ritonavir
[6] = test system: transporters including P-glycoprotein, MRP1, and MRP2; assay: permeability assays for transporter interaction; format: in vitro ADME
[7] = in vivo
cytochrome P450 enzymes = conditions: in vitro or in vivo in humans
[8] = test system: UDP-glucuronosyltransferases; assay: UDP-glucuronosyltransferase interaction; format: in vitro ADME, human; conditions: in vitro or in vivo in humans
[9] = Source text: Chemical stability of the hemifumarate form of tenofovir alafenamide was compared with the monofumarate form. […] Conditions evaluated include temperature, relative humidity (RH), and the open or closed state of the container cap.
[10] = for thermodynamic stability in solvents: toluene, MTBE, acetone, THF, 2-methyl THF
[11] = 25° C., relative humidity of 90%
Procedure: DVS analysis was conducted using 4.951 mg of tenofovir alafenamide hemifumarate. The material was kept at 25° C. in nitrogen at humidities ranging from 10% to 90% relative humidity: each step was equilibrated for 120 minutes.

[12] = 40° C./75% RH Cap Closed, 0 weeks
[13] = 40° C./75% RH Cap Closed, 1 week
[14] = 40° C./75% RH Cap Closed, 2 weeks
[15] = 40° C./75% RH Cap Closed, 4 weeks
[16] = 40° C./75% RH Cap Closed, 8 weeks
[17] = 40° C./75% RH Cap Open, 0 weeks
[18] = 40° C./75% RH Cap Open, 2 weeks
[19] = 40° C./75% RH Cap Open, 4 weeks
[20] = 40° C./75% RH Cap Open, 8 weeks

T1 sequence (Q9UNQ0 whole entry): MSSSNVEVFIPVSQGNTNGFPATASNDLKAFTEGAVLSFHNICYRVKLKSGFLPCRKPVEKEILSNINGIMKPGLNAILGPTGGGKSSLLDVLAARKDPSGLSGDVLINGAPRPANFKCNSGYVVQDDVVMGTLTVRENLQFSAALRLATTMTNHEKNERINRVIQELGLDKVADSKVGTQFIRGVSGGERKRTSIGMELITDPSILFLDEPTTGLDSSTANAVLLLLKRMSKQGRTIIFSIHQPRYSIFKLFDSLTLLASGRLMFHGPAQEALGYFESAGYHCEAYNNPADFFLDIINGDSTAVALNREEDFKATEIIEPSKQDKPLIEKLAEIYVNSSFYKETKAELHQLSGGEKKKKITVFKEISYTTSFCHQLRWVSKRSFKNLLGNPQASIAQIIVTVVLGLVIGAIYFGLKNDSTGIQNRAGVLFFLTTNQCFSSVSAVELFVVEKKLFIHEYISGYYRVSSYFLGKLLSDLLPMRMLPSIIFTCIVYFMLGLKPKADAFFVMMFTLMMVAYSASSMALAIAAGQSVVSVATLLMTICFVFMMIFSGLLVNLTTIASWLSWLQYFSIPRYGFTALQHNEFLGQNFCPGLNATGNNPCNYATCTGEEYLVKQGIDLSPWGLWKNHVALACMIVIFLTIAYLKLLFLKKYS
Chain of CYP2C9 (P11712 whole entry): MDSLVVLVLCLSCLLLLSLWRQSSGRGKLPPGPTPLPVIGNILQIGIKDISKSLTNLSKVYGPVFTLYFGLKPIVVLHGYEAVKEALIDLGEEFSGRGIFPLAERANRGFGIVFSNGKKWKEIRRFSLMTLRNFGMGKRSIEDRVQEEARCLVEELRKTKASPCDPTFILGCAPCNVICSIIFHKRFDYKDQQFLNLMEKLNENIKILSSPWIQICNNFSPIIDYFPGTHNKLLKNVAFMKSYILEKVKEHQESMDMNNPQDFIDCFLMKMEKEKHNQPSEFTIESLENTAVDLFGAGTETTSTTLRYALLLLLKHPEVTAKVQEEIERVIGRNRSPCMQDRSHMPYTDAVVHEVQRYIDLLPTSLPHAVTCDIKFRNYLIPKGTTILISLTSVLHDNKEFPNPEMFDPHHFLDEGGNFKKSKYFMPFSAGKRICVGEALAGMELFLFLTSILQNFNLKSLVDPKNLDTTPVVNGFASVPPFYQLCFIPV
Chain of CYP2C19 (P33261 whole entry): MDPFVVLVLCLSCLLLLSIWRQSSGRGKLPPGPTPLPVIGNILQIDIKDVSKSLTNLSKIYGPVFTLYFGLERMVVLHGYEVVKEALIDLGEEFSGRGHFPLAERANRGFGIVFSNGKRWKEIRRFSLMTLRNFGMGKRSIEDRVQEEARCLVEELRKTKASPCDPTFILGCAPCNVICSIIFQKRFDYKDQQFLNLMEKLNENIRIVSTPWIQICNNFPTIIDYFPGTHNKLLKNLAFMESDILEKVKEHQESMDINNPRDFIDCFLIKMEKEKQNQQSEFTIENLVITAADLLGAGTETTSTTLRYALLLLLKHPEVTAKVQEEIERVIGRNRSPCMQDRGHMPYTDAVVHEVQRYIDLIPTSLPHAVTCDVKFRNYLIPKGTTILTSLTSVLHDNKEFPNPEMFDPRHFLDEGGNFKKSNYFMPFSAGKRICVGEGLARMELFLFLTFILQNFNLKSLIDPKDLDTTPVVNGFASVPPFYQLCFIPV
Chain of CYP1A2 (P05177 whole entry): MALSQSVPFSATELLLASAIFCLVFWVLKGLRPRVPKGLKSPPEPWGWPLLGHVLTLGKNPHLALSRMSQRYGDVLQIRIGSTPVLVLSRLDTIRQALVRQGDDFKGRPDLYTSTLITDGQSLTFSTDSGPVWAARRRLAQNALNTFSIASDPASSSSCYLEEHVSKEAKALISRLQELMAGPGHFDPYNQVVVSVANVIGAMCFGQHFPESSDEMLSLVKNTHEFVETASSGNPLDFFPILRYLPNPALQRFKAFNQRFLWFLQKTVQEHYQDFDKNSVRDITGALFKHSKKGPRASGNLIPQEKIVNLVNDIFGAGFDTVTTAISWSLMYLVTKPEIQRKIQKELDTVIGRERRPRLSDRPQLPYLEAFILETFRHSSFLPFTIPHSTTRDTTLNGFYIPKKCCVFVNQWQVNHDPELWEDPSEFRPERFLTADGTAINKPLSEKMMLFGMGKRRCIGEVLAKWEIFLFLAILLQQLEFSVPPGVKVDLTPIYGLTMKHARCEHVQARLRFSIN
Chain of CYP2B6 (P20813 whole entry): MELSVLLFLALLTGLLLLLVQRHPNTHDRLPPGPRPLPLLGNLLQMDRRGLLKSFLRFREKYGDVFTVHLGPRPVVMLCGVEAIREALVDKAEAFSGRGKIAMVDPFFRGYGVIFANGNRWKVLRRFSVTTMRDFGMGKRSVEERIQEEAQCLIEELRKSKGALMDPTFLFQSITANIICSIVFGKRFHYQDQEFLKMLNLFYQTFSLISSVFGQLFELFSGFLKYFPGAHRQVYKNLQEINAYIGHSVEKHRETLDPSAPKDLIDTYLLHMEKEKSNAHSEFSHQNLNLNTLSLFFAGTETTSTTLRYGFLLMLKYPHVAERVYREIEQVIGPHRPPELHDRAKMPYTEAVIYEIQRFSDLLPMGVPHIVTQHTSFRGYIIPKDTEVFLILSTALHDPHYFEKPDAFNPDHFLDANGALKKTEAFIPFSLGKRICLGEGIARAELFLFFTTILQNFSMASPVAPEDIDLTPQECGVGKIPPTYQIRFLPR
Chain of uridine glucuronosyltransferase 1A1 (P22309 26-533): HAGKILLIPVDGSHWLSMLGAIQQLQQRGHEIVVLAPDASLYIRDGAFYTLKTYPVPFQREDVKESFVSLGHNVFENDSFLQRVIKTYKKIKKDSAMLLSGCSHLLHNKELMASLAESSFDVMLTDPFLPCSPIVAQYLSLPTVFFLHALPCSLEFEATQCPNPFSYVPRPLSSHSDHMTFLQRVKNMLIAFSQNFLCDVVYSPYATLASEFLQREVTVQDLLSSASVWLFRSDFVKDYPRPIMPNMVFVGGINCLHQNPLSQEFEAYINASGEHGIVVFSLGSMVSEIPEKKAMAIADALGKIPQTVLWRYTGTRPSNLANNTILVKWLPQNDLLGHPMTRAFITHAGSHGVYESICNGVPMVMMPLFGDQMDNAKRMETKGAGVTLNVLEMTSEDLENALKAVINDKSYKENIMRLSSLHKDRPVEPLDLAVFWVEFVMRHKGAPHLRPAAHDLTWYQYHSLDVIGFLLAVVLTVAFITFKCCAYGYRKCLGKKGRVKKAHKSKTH
Chain of CYP2D6 (P10635 whole entry): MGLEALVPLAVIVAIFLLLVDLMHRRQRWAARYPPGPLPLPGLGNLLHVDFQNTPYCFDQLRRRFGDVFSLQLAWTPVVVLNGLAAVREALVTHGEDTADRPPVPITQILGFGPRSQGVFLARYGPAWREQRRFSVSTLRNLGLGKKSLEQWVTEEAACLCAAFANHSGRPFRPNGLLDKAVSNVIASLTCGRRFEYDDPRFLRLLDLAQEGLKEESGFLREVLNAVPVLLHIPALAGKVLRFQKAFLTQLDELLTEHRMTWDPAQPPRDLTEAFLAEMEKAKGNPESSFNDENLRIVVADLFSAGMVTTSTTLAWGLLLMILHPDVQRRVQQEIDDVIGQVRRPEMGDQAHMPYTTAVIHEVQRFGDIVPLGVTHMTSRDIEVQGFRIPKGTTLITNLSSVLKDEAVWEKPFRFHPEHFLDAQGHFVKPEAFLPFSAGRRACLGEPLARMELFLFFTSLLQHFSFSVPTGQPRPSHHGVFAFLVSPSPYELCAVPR
Chain of CYP2C8 (P10632 whole entry): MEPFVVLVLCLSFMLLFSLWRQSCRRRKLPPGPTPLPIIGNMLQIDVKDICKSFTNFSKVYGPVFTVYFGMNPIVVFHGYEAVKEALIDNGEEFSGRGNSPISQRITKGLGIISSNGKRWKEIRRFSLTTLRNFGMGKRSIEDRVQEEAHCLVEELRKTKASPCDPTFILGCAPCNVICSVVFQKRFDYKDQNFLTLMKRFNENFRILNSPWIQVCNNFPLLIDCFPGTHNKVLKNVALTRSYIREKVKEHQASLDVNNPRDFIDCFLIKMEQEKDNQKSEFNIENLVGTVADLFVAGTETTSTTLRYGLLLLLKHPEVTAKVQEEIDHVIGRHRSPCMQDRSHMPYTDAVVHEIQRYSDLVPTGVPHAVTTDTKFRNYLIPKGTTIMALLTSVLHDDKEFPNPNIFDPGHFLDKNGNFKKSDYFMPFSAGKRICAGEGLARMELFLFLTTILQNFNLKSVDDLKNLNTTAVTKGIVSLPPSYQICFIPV

Molecule | % TA Area Normalized [9, 12] [%] | % Total Deg. Products [9, 12] [%] | % TA Area Normalized [9, 13] [%] | % Total Deg. Products [9, 13] [%] | % TA Area Normalized [9, 14] [%] | % Total Deg. Products [9, 14] [%] | % TA Area Normalized [9, 15] [%] | % Total Deg. Products [9, 15] [%] | % TA Area Normalized [9, 16] [%] | % Total Deg. Products [9, 16] [%] | % TA Area Normalized [9, 17] [%] | % Total Deg. Products [9, 17] [%] | % TA Area Normalized ([9]; 40° C./75% RH Cap Open, 1 week) [%] | % Total Deg. Products ([9]; 40° C./75% RH Cap Open, 1 week) [%] | % TA Area Normalized [9, 18] [%] | % Total Deg. Products [9, 18] [%] | % TA Area Normalized [9, 19] [%] | % Total Deg. Products [9, 19] [%] | % TA Area Normalized [9, 20] [%] | % Total Deg. Products [9, 20] [%] | also measured
CC(C)c1nc(CN(C)C(=O)N[C@@H](CCN2CCOCC2)C(=O)N[C@H](CC[C@H](Cc2ccccc2)NC(=O)OCc2cncs2)Cc2ccccc2)cs1 [cobicistat, 1,3-thiazol-5-ylmethyl (2R,5R)-(5-{[(2S)-2-[(methyl{[2-(propan-2-yl)-1,3-thiazol-4-yl]methyl}carbamoyl)amino]]-4-(morpholin-4-yl)butanamido}-1,6-diphenylhexan-2-yl)carbamate] |  |  |  |  |  |  |  |  |  |  |  |  |  |  |  |  |  |  |  |  | inhibition of uridine glucuronosyltransferase 1A1 [1]: does not appreciably inhibit; inhibition of CYP2C8 (CYP2C8): does not appreciably inhibit; substrate for BCRP (BCRP [2]): substrate; inhibition of CYP2D6 (CYP2D6): weak inhibitor; inhibition of CYP1A2 (CYP1A2): does not appreciably inhibit; effect on A-B flux of GS-7340 (caco-2 cell monolayers): increased the A-B flux; effect on B-A flux of GS-7340 (caco-2 cell monolayers): reducing B-A flux; IC50 (BCRP [3]): 59 ± 28 µM; potential as inducer of cytochrome P450, UGT1A1, or P-glycoprotein [4]: no/weak potential as an inducer; inhibition of CYP2C9 (CYP2C9): does not appreciably inhibit; IC50 (Pgp): 36 ± 10 µM; inhibition of CYP2C19 (CYP2C19): does not appreciably inhibit; substrate for Pgp [5]: substrate; inhibition of CYP2B6 (CYP2B6): moderate inhibitor; substrate or inhibitor of transporters [6]: not a strong substrate or inhibitor
C[C@H](Cn1cnc2c(N)ncnc21)OCP(=O)(O)O [tenofovir, 9-R-[(2-phosphonomethoxy)propyl]adenine] |  |  |  |  |  |  |  |  |  |  |  |  |  |  |  |  |  |  |  |  | systemic exposure equivalent, fold higher than a dose of tenofovir alone [7]: 3 to 4 fold; interaction with human cytochrome P450 enzymes as substrate, inhibitor, or inducer (cytochrome P450 enzymes): does not interact significantly; interaction with UDP-glucuronosyltransferases as substrate, inhibitor, or inducer [8]: does not interact significantly
tenofovir alafenamide hemifumarate | 98.4 | 0.05 | 98.4 | 0.14 | 98.5 | 0.14 | 98.4 | 0.25 | 98.0 | 0.49 | 98.4 | 0.05 | 98.5 | 0.15 | 98.5 | 0.14 | 98.4 | 0.26 | 98.1 | 0.50 | % TA Area Normalized ([9]; 70° C. Cap Closed, 0 weeks): 98.4%; % Total Deg. Products ([9]; 70° C. Cap Closed, 0 weeks): 0.05%; % TA Area Normalized ([9]; 70° C. Cap Closed, 2 weeks): 98.5%; % Total Deg. Products ([9]; 70° C. Cap Closed, 2 weeks): 0.22%; % TA Area Normalized ([9]; 70° C. Cap Closed, 4 weeks): 98.4%; % Total Deg. Products ([9]; 70° C. Cap Closed, 4 weeks): 0.33%; thermodynamic stability in solvents ([10]; ACN, ethyl acetate): thermodynamically stable in most solvents; water absorbed [11]: 0.65%
tenofovir alafenamide monofumarate [Monofumarate form] | 97.1 | 0.69 | 97.0 | 0.87 | 96.6 | 1.18 | 96.4 | 1.49 | 95.4 | 2.36 | 97.1 | 0.69 | 96.9 | 0.90 | 96.6 | 1.10 | 96.2 | 1.67 | 95.0 | 2.74 | % TA Area Normalized ([9]; 70° C. Cap Closed, 0 weeks): 97.1%; % Total Deg. Products ([9]; 70° C. Cap Closed, 0 weeks): 0.69%; % TA Area Normalized ([9]; 70° C. Cap Closed, 2 weeks): 96.2%; % Total Deg. Products ([9]; 70° C. Cap Closed, 2 weeks): 1.83%; % TA Area Normalized ([9]; 70° C. Cap Closed, 4 weeks): 93.3%; % Total Deg. Products ([9]; 70° C. Cap Closed, 4 weeks): 4.78%; form conversion when suspended in solvent ([10]; ACN, ethyl acetate, MTBE, and acetone): partially converts to the hemifumarate form; thermodynamic stability in solvents ([10]; ACN, ethyl acetate): not thermodynamically stable; form conversion when suspended in solvent ([10]; THF and 2-methyl THF): fully converts to the hemifumarate form
